From article PMC12234328, “A naphthalimide derivative exerts potent antiplatelet and antithrombotic activities without a bleeding tendency” (Frontiers in Pharmacology, 2025)
pKd: −log10 of the molar value.

Assays:
[1] = test system: GPVI signaling (Lyn, Fyn, PLCγ2, PKC substrate p47, Akt, MAPKs); test: Western blotting of GPVI signaling in collagen-stimulated platelets; type: cell-based, human; conditions: collagen 1 μg/mL
Description: Western blotting was performed as described previously ([Lien et al., 2017]). Human platelet suspensions (3.6 × 10^8 cells/mL) were pretreated with compound 6 (2.5 and 5 μM) or 0.1% DMSO for 3 min and then treated with collagen for 6 min. After centrifugation, the platelet pellets were immediately resuspended in lysis buffer (200 μL) for 1 h. The supernatants were collected after centrifugation at 5,000 g for 5 min, and the protein extracts (80 μg) were subjected to 8%–12% sodium dodecylsulfate–polyacrylamide gel electrophoresis. The separated proteins were then electrotransferred onto a polyvinylidene fluoride membrane through a semidry transfer (Thermo Fisher, Waltham, MA, United States). The membrane was blocked with TBST (10 mM Tris-base, 100 mM NaCl, and 0.01% Tween-20) containing 5% B.S.A. for 1 h. After being washed three times, the membrane was incubated with various specific primary antibodies (1:1,000). Subsequently, the membrane was incubated with HRP-conjugated antibodies (1:5,000) for 1 h. Immunoreactive bands were developed using an electrochemiluminescence kit and analyzed using Celvin S (Biostep, Burkhardtsdorf, Germany).
FIGURE 5 Effects of compound 6 on the phosphorylation of Fyn, Lyn, PLCγ2, and PKC substrates (p47) induced by collagen in human platelets. (A–D) Washed platelets (3.6 × 10^8 cells/mL) were treated with compound 6 (2.5 and 5 μM) or DMSO before adding collagen (1 μg/mL). Proteins of these samples were separated by Western blotting. These targets (Fyn, Lyn, PLCγ2, and p47) were detected using specific antibodies. Data (A–D) are presented as means ± SEM (n = 5). **p < 0.01 and ***p < 0.001 compared with the resting group. #p < 0.05, ##p < 0.01, and ###p < 0.001 compared with the DMSO (solvent control) group.
FIGURE 6 Effects of compound 6 on the phosphorylation of Akt, and MAPKs induced by collagen in human platelets. Washed platelets (3.6 × 10^8 cells/mL) were treated with compound 6 (2.5 and 5 μM) or DMSO before adding collagen (1 μg/mL). […] Akt (A), p38 MAPK (B), ERK (C), and JNK (D) were detected using specific antibodies. […]

[2] = test system: collagen-triggered calcium mobilization in human platelets; test: Calcium mobilization in human platelet suspensions (Fura-2 AM); type: cell-based; conditions: 2.5 and 5 μM, collagen 1 μg/mL, n = 4
Description: Adenosine triphosphate (ATP) release and calcium mobilization were assessed as previously described ([Shih et al., 2021]). Luciferase–luciferin and Fura-2 AM were used to detect ATP release and calcium mobilization, respectively. The intensity of luminescence (indicating ATP release) and the fluorescence ratio (340 nm/380 nm) for calcium mobilization were measured using a Hitachi Spectrometer F-7000 (Tokyo, Japan) following the manufacturer’s instructions.
FIGURE 8 Effects of compound 6 on ATP release, calcium mobilization, and GPIIb–IIIa activation triggered by collagen in human platelets. Washed platelets (3.6 × 10^8 cells/mL) were treated with compound 6 (C6, 2.5 and 5 μM) or DMSO and then stimulated with collagen (1 μg/mL) to trigger ATP release (A), calcium mobilization (B), and GPIIb–IIIa activation (C) that were detected using luciferase/luciferin, Fura-2 AM, and APC–PAC1 antibodies, respectively. Data (A–C) are presented as means ± SEM (n = 4). **p < 0.01 and ***p < 0.001 compared with the resting group. #p < 0.05, ##p < 0.01, and ###p < 0.001 compared with the DMSO (solvent control) group.

recombinant human GPVI = target: T1, recombinant human GPVI (Homo sapiens, UniProt Q9HCN6); test: Surface plasmon resonance binding assay (OpenSPR); conditions: his-tagged recombinant GPVI on NTA chip, compound at 0.1 and 1 μM; read-out: KD (equilibrium dissociation constant)
T1 sequence (Q9HCN6 21-267 limits assumed): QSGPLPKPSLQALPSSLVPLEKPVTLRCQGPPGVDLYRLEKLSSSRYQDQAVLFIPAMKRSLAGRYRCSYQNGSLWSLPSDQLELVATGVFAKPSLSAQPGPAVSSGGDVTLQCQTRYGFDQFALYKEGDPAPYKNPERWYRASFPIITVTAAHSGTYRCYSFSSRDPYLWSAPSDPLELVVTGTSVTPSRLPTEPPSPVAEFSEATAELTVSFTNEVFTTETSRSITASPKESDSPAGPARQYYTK
Description: Surface plasmon resonance (SPR) analysis was performed using an OpenSPR instrument (Nicoya, Kitchener, Canada). A nitrilotriacetic acid (NTA) sensor chip was installed in the OpenSPR instrument. Running buffer (phosphate-buffered saline) was pumped at the maximum flow rate, and 80% isopropanol was injected to remove any bubbles. Subsequently, 200 μL of a 200 mM imidazole solution was injected to prime the sensor surface. After rinsing the chip with running buffer, 200 μL of a 40 mM NiCl2 solution was used to activate the NTA chip. After 5 min of interaction time, his-tagged recombinant GPVI proteins were bound to the NTA chip by perfusing the GPVI protein solution at a flow rate of 20 μL/min. Solutions of compound 5 or compound 6 (0.1 and 1 μM) were then injected. The equilibrium dissociation constant (KD) was determined using the OpenSPR system (Nicoya).
An SPR binding assay was performed. First, recombinant human GPVI was coated on the NTA sensor chip. Solutions of compound 5 and compound 6 (0.1 and 1 μM) were then perfused on the chip, and the KD was determined using the OpenSPR system (Nicoya Lifesciences).
FIGURE 7 Direct binding of compound 6 on GPVI. […] Equilibrium dissociation constant (KD) were determined using the OpenSPR system. […]

CCCCN1C(=O)c2cccc3c(NCCNC(=O)C45CC6CC(CC(C6)C4)C5)ccc(c23)C1=O [compound 6]
Collagen-induced phosphorylation of Akt and MAPKs (ERK, p38 MAPK, JNK) ([1]; 5 μM, n = 4): could be diminished
Collagen-induced Lyn and Fyn phosphorylation ([1]; 2.5 and 5 μM, n = 5): could be reversed
Collagen-induced phosphorylation of PLCγ2 and the substrate of PKC (p47 proteins) ([1]; 2.5 and 5 μM, n = 5): significantly reduced
Calcium mobilization [2]: significantly reduce
pKd (recombinant human GPVI): 6.80
